Laboratory results taken from PMC7932537, “Quantitative profiling of protease specificity” (PLoS Computational Biology, 2021).

What was measured:
[1] = tested on: MMP-2; experiment: Substrate phage display with NGS: relative probability (RP) of P3-P1' tetramer clusters; format: biochemical, human; conditions: MMP2;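 further: ratio of tetramer probability after protease selection to that in naive phage library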
[2] = molecular target: T1, MMP-2 (Homo sapiens, UniProt P08253); experiment: K(obs) of individual phage substrates (set of 1369); format: biochemical; conditions: MMP2
T1 sequence (P08253 110-660): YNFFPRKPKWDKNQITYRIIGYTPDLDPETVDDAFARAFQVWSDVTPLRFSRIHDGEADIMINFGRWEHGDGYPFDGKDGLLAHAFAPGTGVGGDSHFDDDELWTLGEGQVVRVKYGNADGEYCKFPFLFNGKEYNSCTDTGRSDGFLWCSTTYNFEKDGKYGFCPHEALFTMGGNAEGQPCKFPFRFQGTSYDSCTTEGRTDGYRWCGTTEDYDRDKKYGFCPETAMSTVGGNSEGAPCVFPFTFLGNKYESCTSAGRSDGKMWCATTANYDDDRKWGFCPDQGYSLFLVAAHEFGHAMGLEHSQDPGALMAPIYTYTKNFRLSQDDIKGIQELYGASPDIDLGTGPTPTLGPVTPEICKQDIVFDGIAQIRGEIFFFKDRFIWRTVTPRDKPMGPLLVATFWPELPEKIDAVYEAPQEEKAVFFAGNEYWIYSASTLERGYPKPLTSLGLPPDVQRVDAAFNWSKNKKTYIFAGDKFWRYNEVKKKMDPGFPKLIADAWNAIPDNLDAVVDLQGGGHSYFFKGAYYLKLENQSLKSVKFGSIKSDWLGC

[3] = molecular target: MMP-9 (Homo sapiens, UniProt P14780); experiment: as above; format: biochemical; conditions: MMP9
[4] = RP of the P3-P1' tetramer contained in the substrate
[5] = individual phage substrate of the set of 1369 peptides, cleavage position marked by '-'
[6] = individual phage substrate of the set of 1369 peptides, dash in the sequence marks the cleavage position
[7] = RP of the P3-P1' tetramer contained in the substrate (substrate phage display with NGS)
[8] = individual phage substrates, set of 1369 peptides, cleavage position marked by hyphen in sequence
[9] = individual phage substrates, set of 1369 peptides, hyphen in sequence marks cleavage position

Sequence of MMP-9 (P14780 94-707): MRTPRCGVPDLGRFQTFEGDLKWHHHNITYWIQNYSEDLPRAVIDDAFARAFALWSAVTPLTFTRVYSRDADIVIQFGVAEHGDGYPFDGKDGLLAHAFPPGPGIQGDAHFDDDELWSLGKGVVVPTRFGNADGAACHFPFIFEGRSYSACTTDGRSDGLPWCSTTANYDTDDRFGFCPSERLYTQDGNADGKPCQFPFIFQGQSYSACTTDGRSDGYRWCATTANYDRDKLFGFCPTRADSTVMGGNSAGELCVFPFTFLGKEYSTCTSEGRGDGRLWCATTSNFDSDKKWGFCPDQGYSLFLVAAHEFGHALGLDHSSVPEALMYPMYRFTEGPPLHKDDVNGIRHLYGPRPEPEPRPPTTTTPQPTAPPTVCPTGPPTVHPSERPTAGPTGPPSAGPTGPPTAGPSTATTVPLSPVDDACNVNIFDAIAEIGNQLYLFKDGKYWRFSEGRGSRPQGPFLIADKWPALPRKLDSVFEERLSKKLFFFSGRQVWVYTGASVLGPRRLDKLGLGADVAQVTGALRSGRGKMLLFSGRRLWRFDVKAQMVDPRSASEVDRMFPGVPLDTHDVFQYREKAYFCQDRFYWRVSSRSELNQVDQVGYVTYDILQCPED

Substance | relative probability (RP) [1, 4] | Kobs [2, 5] [M⁻¹ s⁻¹] | Kobs [3, 6] [M⁻¹ s⁻¹] | relative probability (RP) [1, 7] | Kobs [2, 8] [M⁻¹ s⁻¹] | Kobs [3, 9] [M⁻¹ s⁻¹]
NVPVW-MTASG | 25.8126 | 5461.43 | 5461.43 | – | – | –
PAYFP-LTASG | 0.1432 | 0 | 0 | – | – | –
PCHLA-LTASG | 11.3603 | 1327.88 | 619.843 | – | – | –
PGPES-LTASG | – | – | – | 26.0767 | 10866.7 | 12792.1
PHTAS-LTASG | 17.8872 | 12792.1 | 0 | – | – | –
PIALH-WTASG | – | – | – | 5.12 | 12792.1 | 12792.1
PKFSH-MTASG | – | – | – | 11.0227 | 1030.73 | 0
PKGYA-LTASG | 0.5867 | 2615.58 | 3850.82 | – | – | –
PKMSH-LTASG | 24.6165 | 2409.72 | 0 | – | – | –
PKWHG-LTASG | 0.5588 | 355.093 | 619.843 | – | – | –
PMVRW-LTASG | – | – | – | 25.891 | 12792.1 | 12792.1
PQVWY-LTASG | – | – | – | 3.667 | 4205.91 | 5889.62
PRLTH-LTASG | – | – | – | 4.299 | 1610.61 | 27.918
PRVEA-LTASG | 10.756 | 4205.91 | 231.616 | – | – | –
PRVHH-LTASG | 14.1228 | 6396.07 | 2615.58 | – | – | –
PRVML-LTASG | – | – | – | 0.4692 | 142.481 | 1112.44
PRVWL-LTASG | – | – | – | 0.5351 | 3165.09 | 2687.73

Substance | relative probability (RP) [1, 4] | Kobs [2, 5] [M⁻¹ s⁻¹] | Kobs [3, 6] [M⁻¹ s⁻¹] | relative probability (RP) [1, 7] | Kobs [2, 8] [M⁻¹ s⁻¹] | Kobs [3, 9] [M⁻¹ s⁻¹]
PSWRA-LTASG | 22.4074 | 10866.7 | 4470.66 | – | – | –
PTFAH-LTASG | 19.6504 | 9740.44 | 585.336 | – | – | –
PVFQS-LTASG | – | – | – | 13.5551 | 4922.1 | 142.481
PYPVP-FTASG | 31.1155 | 12792.1 | 12792.1 | – | – | –
QAPMG-LTASG | 34.7865 | 3438.54 | 9740.44 | – | – | –
QEPRN-ITASG | 31.9621 | 12792.1 | 12792.1 | – | – | –
QGPWH-ITASG | 10.946 | 4205.91 | 12792.1 | – | – | –
QHWGG-LTASG | – | – | – | 21.3794 | 12792.1 | 386.839
QKVLN-MTASG | – | – | – | 19.025 | 2476.66 | 5269.78
QPLSW-VTASG | 11.7463 | 12792.1 | 4922.1 | – | – | –
QRMAS-LTASG | – | – | – | 31.6834 | 10866.7 | 551.253
QRPAQ-LTASG | – | – | – | 32.8467 | 12792.1 | 12792.1
QSPRM-LTASG | 30.5973 | 10866.7 | 10866.7 | – | – | –
QSWYG-MTASG | – | – | – | 0.05309 | 1112.44 | 3741.87
QVSWA-WTASG | – | – | – | 0.05632 | 0 | 231.616
RAPAS-LTASG | 36.4285 | 12792.1 | 12792.1 | – | – | –
RAPLH-MTASG | 30.0095 | 2916.17 | 12792.1 | – | – | –
